According to ChEMBL document CHEMBL4706653, “Ultra-short lipopeptides against gram-positive bacteria while alleviating antimicrobial resistance” (Eur J Med Chem, 2021):
≈ marks a conversion by molar mass, not a printed value. Residues, ends and D or L forms follow the SMILES beside them. *: point of attachment. Palmitoyl = CCCCCCCCCCCCCCCC(=O)*; Octanoyl = CCCCCCCC(=O)*

Experiments:
Staphylococcus aureus [1] = experiment: Antimicrobial activity against methicillin-resistant Staphylococcus aureus 113 after 18 hrs by broth microdilution method; assay type: functional
[2] = system: Staphylococcus epidermidis; experiment: Antimicrobial activity against Staphylococcus epidermidis ATCC 12228 after 18 hrs by broth microdilution method; assay type: functional
Staphylococcus aureus [3] = experiment: Antimicrobial activity against Staphylococcus aureus ATCC 25923 after 18 hrs by broth microdilution method; assay type: functional
Erythrocyte = experiment: Hemolytic activity against mouse erythrocytes measured after 1 hr; assay type: ADME, cell-based
Staphylococcus aureus [4] = experiment: Antimicrobial activity against Staphylococcus aureus ATCC 29213 after 18 hrs by broth microdilution method; assay type: functional
Staphylococcus aureus [5] = experiment: Antimicrobial activity against methicillin-resistant Staphylococcus aureus 75 after 18 hrs by broth microdilution method; assay type: functional
[6] = Therapeutic index, ratio of MHC for mouse RBC to geometric mean of peptide MIC for Staphylococcus epidermidis ATCC 12228; assay type: toxicity; conditions: pooled result: one value given for 6 cell lines, strains, targets or settings, read-out: TI
Bacillus subtilis = experiment: Antimicrobial activity against Bacillus subtilis ATCC 23857 after 18 hrs by broth microdilution method; assay type: functional

Structure (SMILES)	MIC (Staphylococcus aureus [1]) [µM]	MIC [2] [µM]	MIC (Staphylococcus aureus [3]) [µM]	MHC10 (Erythrocyte) [µM]	MIC (Staphylococcus aureus [4]) [µM]	MIC (Staphylococcus aureus [5]) [µM]	selectivity ratio [6]	MIC (Bacillus subtilis) [µM]
CCCCCCCC(=O)N[C@@H](Cc1c[nH]c2ccccc12)C(=O)N[C@@H](CCCNC(=N)N)C(=O)N[C@@H](CCCNC(=N)N)C(N)=O (Octanoyl-Trp-Arg-Arg-NH2)	128 (≈ 82.2 µg/mL)	32 (≈ 20.5 µg/mL)	128 (≈ 82.2 µg/mL)	> 256	128 (≈ 82.2 µg/mL)	64 (≈ 41.1 µg/mL)	5.65	64 (≈ 41.1 µg/mL)
CCCCCCCCCCCCCCCC(=O)N[C@@H](CCCNC(=N)N)C(=O)N[C@@H](CCCNC(=N)N)C(=O)N[C@@H](CCCNC(=N)N)C(N)=O (Palmitoyl-Arg-Arg-Arg-NH2)	2 (≈ 1.45 µg/mL)	8 (≈ 5.79 µg/mL)	8 (≈ 5.79 µg/mL)	64	32 (≈ 23.2 µg/mL)	8 (≈ 5.79 µg/mL)	5.83	8 (≈ 5.79 µg/mL)
CCCCCCCCCCCCCCCC(=O)N[C@@H](CCCNC(=N)N)C(=O)N[C@@H](CCCNC(=N)N)C(=O)N[C@@H](Cc1c[nH]c2ccccc12)C(N)=O (Palmitoyl-Arg-Arg-Trp-NH2)	2 (≈ 1.51 µg/mL)	8 (≈ 6.03 µg/mL)	8 (≈ 6.03 µg/mL)	32	8 (≈ 6.03 µg/mL)	8 (≈ 6.03 µg/mL)	5.05	4 (≈ 3.02 µg/mL)
CCCCCCCCCCCCCCCC(=O)N[C@@H](CCCNC(=N)N)C(=O)N[C@@H](Cc1c[nH]c2ccccc12)C(=O)N[C@@H](CCCNC(=N)N)C(N)=O (Palmitoyl-Arg-Trp-Arg-NH2)	4 (≈ 3.02 µg/mL)	8 (≈ 6.03 µg/mL)	8 (≈ 6.03 µg/mL)	64	16 (≈ 12.1 µg/mL)	8 (≈ 6.03 µg/mL)	7.38	8 (≈ 6.03 µg/mL)
CCCCCCCCCCCCCCCC(=O)N[C@@H](CCCNC(=N)N)C(=O)N[C@@H](Cc1c[nH]c2ccccc12)C(=O)N[C@@H](Cc1c[nH]c2ccccc12)C(N)=O (Palmitoyl-Arg-Trp-Trp-NH2)	8 (≈ 6.27 µg/mL)	16 (≈ 12.5 µg/mL)	16 (≈ 12.5 µg/mL)	> 256	32 (≈ 25.1 µg/mL)	32 (≈ 25.1 µg/mL)	18.3	64 (≈ 50.2 µg/mL)
CCCCCCCCCCCCCCCC(=O)N[C@@H](Cc1c[nH]c2ccccc12)C(=O)N[C@@H](CCCNC(=N)N)C(=O)N[C@@H](CCCNC(=N)N)C(N)=O (Palmitoyl-Trp-Arg-Arg-NH2)	8 (≈ 6.03 µg/mL)	8 (≈ 6.03 µg/mL)	8 (≈ 6.03 µg/mL)	32	8 (≈ 6.03 µg/mL)	8 (≈ 6.03 µg/mL)	4	8 (≈ 6.03 µg/mL)
